Test results from patent US7982043B2, “Protein tyrosine kinase enzyme inhibitors” (Wyeth LLC, priority 2003, dated 2011).
In brackets after ≈: the same amount, converted by molar mass. Where two headings read alike, the source gives them in different places.

Assays:
[1] = system: SW620 cells; assay: Cell proliferation assay (SRB), SW620; assay type: cell-based; conditions: EGFR −, Her-2 −, 2 days, SRB; for IC50: Homo sapiens, SW-620, 48 h, read-out: CELL IC50 SW620
[2] = system: BT474 cells; assay: Cell proliferation assay (SRB), BT474; assay type: cell-based, human; conditions: EGFR +, Her-2 +++, 6 days, SRB
[3] = system: 3T3 cells; assay: Cell proliferation assay (SRB), 3T3; assay type: cell-based, mouse; conditions: EGFR −, Her-2 −, 2 days, SRB
[4] = molecular target: mouse fibroblast cell line transfected with the HER-2 oncogene (3T3/neu) (UniProt P04626, cells depend on it, species not given); assay: Cell proliferation assay (SRB), 3T3/neu; assay type: cell-based; conditions: for GI50: read-out: CELL IC50 3T3/NEU (converted)
[5] = system: MDA-MB-435 cells; assay: Cell proliferation assay (SRB), MDA-MB-435; assay type: cell-based; conditions: EGFR −, Her-2 −, 2 days, SRB; for IC50: Homo sapiens, MDA-MB-435, 48 h, read-out: CELL IC50 MDA-MB-435
[6] = molecular target: T1, Her-2 (Homo sapiens, UniProt P04626); assay: Her-2 receptor phosphorylation in BT474 cells (immunoblot); assay type: cell-based; conditions: Her-2 phosphorylation, 3 hours at 37° C., immunoblot; for IC50: read-out: IC50 receptor phosphorylation BT474 (converted)
T1 construct: For Her-2 and EGFR phosphorylation assays, cells (BT474 and A431, respectively) were incubated with various concentrations of compound; endogenous in cells; host or cells: BT474

[7] = system: SK-Br-3 cells; assay: Cell proliferation assay (SRB), SK-Br-3; assay type: cell-based; conditions: EGFR −, Her-2 +++, 2 days, SRB; for IC50: Homo sapiens, SK-BR-3, 48 h, read-out: CELL IC50 SKBr3
[8] = system: A431 cells; assay: Cell proliferation assay (SRB), A431; assay type: cell-based; conditions: for IC50: Homo sapiens, A-431, 48 h, read-out: CELL IC50 A431
[9] = molecular target: T2, recombinant cytoplasmic domain of HER-2 (Homo sapiens, UniProt P04626); assay: Cell-free autophosphorylation kinase assay (ELISA), HER-2; assay type: biochemical
T2 construct: In a cell-free autophosphorylation assay using the recombinant cytoplasmic domain of HER-2

Row | Compound | IC50 [1] | GI50 ([4]; EGFR −, Her-2 +++, 2 days, SRB) | IC50 [5] | IC50 [7] | CELL IC50 SW620 [1] | CELL IC50 MDA-MB-435 [5] | CELL IC50 SKBr3 [7] | IC50 ([8]; EGFR +++, Her-2 +, 2 days, SRB) | also measured
1 | CCOc1cc2ncc(C#N)c(Nc3ccc(OCc4cccs4)c(Cl)c3)c2cc1NC(=O)/C=C/CN(C)C [Example 76, (2E)-N-{4-[3-chloro-4-(2-thienylmethoxy)anilino]-3-cyano-7-ethoxy-6-quinolinyl}-4-(dimethylamino)-2-butenamide] | 0.25 µg/mL (≈ 0.445 µM) | 6.94 nM | 0.77 µg/mL (≈ 1.37 µM) | 0.004 µg/mL (≈ 0.00712 µM) |  |  |  |  | IC50 ([2]; Homo sapiens, BT-474, 144 h, read-out: CELL IC50 BT474): 0.003 µg/mL (≈ 0.00534 µM); IC50 ([3]; Mus musculus, NIH3T3, 48 h, read-out: CELL IC50 3T3): 0.41 µg/mL (≈ 0.729 µM); IC50 [6]: 2.67 nM
2 | COc1cc2ncc(C#N)c(Nc3ccc(Sc4nccn4C)c(Cl)c3)c2cc1NC(=O)/C=C/CN(C)C [Example 37, (2E)-N-[4-({3-chloro-4-[(1-methyl-1H-imidazol-2-yl)sulfanyl]phenyl}amino)-3-cyano-7-methoxy-6-quinolinyl]-4-(dimethylamino)-2-butenamide] | 0.43 µg/mL (≈ 0.785 µM) | 36.5 nM | 0.43 µg/mL (≈ 0.785 µM) | 0.0004 µg/mL (≈ 0.00073 µM) |  |  |  |  | IC50 [8]: 0.02 µg/mL (≈ 0.0365 µM); IC50 [6]: < 1820 nM
3 | CCOc1cc2ncc(C#N)c(Nc3ccc(F)c(Cl)c3)c2cc1NC(=O)C=CCN(C)C [Example 20, 4-Dimethyl-but-2-enoic acid [4-(3-chloro-4-fluoro-phenylamino)-3-cyano-7-ethoxy-quinolin-6-yl]-amide] |  |  |  |  | 0.32 µg/mL | 0.34 µg/mL | 0.0071 µg/mL |  | inhibition of the HER-2 enzyme (in words) [9]: is not; Enzyme IC50 HER-2 ([9]; autophosphorylation, ELISA): 0.58 µg/mL; CELL IC50 BT474 [2]: 0.020 µg/mL; CELL IC50 3T3 [3]: 0.26 µg/mL; IC50 receptor phosphorylation BT474 [6]: 0.080 µg/mL (≈ 0.171 µM)
4 | COc1cc2ncc(C#N)c(Nc3ccc(Sc4nccs4)c(Cl)c3)c2cc1NC(=O)/C=C/CN(C)C [Example 40, (2E)-N-(4-{[3-chloro-4-(1,3-thiazol-2-ylsulfanyl)phenyl]amino}-3-cyano-7-methoxy-6-quinolinyl)-4-(dimethylamino)-2-butenamide] | 1.13 µg/mL (≈ 2.05 µM) | 3.63 nM | 0.33 µg/mL (≈ 0.599 µM) | 0.0007 µg/mL (≈ 0.00127 µM) |  |  |  |  | IC50 [8]: 0.017 µg/mL (≈ 0.0308 µM); IC50 [6]: 18100 to 90700 nM
5 | COc1cc2ncc(C#N)c(Nc3ccc(Sc4nc(-c5ccccc5)cs4)c(Cl)c3)c2cc1NC(=O)/C=C/CN(C)C [Example 58, (E)-N-(4-{3-chloro-4-[(4-phenyl-1,3-thiazol-2-yl)sulfanyl]anilino}-3-cyano-7-methoxy-6-quinolinyl)-4-(dimethylamino)-2-butenamide] | 0.57 µg/mL (≈ 0.909 µM) | 44.6 nM | 0.23 µg/mL (≈ 0.367 µM) | 0.005 µg/mL (≈ 0.00797 µM) |  |  |  | 0.162 µg/mL (≈ 0.258 µM) | IC50 [6]: 79700 to 797000 nM
6 | CCOc1cc2ncc(C#N)c(Nc3ccc(Sc4nc(-c5ccccc5)cs4)c(C(F)(F)F)c3)c2cc1NC(=O)/C=C/CN(C)C [Example 69, (E)-N-{3-cyano-7-ethoxy-4-[4-[(4-phenyl-1,3-thiazol-2-yl)sulfanyl]-3-(trifluoromethyl)anilino]-6-quinolinyl}-4-(dimethylamino)-2-butenamide] | 0.6 µg/mL (≈ 0.889 µM) | 622 nM | 0.3 µg/mL (≈ 0.445 µM) | > 5 µg/mL |  |  |  | 0.3 µg/mL (≈ 0.445 µM) | 
7 | CCOc1cc2ncc(C#N)c(Nc3ccc4cc[nH]c4c3)c2cc1OCC [Example 22, 6,7-Diethoxy-4-(1H-indol-6-ylamino)-quinoline-3-carbonitrile] | 0.286 µg/mL (≈ 0.768 µM) | 2510 nM | 0.365 µg/mL (≈ 0.98 µM) | 0.0374 µg/mL (≈ 0.1 µM) |  |  |  | 0.123 µg/mL (≈ 0.33 µM) | 
8 | CCOc1cc2ncc(C#N)c(Nc3ccc(Sc4nc(C)cc(C)n4)c(Cl)c3)c2cc1N [Example 75, 6-amino-4-{3-chloro-4-[(4,6-dimethyl-2-pyrimidinyl)sulfanyl]anilino}-7-ethoxy-3-quinolinecarbonitrile] | 1.36 µg/mL (≈ 2.85 µM) | 4440 nM | 1.3 µg/mL (≈ 2.73 µM) | 0.98 µg/mL (≈ 2.05 µM) |  |  |  | 0.76 µg/mL (≈ 1.59 µM) | 
9 | COc1cc2ncc(C#N)c(Nc3ccc(-n4ccnc4)c(Cl)c3)c2cc1N [Example 42] |  |  |  |  | 5.99 µg/mL | 1.27 µg/mL | 1.73 µg/mL |  | CELL IC50 A431 ([8]; EGFR +++, Her-2 +, 2 days, SRB): 1.63 µg/mL; CELL IC50 3T3/NEU ([4]; EGFR −, Her-2 +++, 2 days, SRB): 0.53 µg/mL
10 | COc1cc2ncc(C#N)c(Nc3ccc(Sc4nc5ccccc5c(=O)[nH]4)c(Cl)c3)c2cc1N [Example 45] |  |  |  |  | 4.66 µg/mL | 4.58 µg/mL | 2.15 µg/mL |  | CELL IC50 A431 ([8]; EGFR +++, Her-2 +, 2 days, SRB): 1.22 µg/mL; CELL IC50 3T3/NEU ([4]; EGFR −, Her-2 +++, 2 days, SRB): 1.88 µg/mL
11 | COc1cc2ncc(C#N)c(Nc3ccc(Sc4nc5ccccc5c(=O)[nH]4)c(Cl)c3)c2cc1NC(=O)/C=C/CN(C)C [Example 46] |  |  |  |  | >5 µg/mL | >5 µg/mL | 0.06 µg/mL |  | CELL IC50 A431 ([8]; EGFR +++, Her-2 +, 2 days, SRB): 0.34 µg/mL; CELL IC50 3T3/NEU ([4]; mouse fibroblast cell line transfected with the her-2 oncogene (3t3/neu)): 0.15 µg/mL
12 | COc1cc2ncc(C#N)c(Nc3ccc(NCc4cccnc4)c(Cl)c3)c2cc1[N+](=O)[O-] [Example 57, 4-{3-chloro-4-[(3-pyridinylmethyl)amino]anilino}-7-methoxy-6-nitro-3-quinolinecarbonitrile] | 3.21 µg/mL (≈ 6.96 µM) | 8740 nM | 1.87 µg/mL (≈ 4.06 µM) | 0.726 µg/mL (≈ 1.58 µM) |  |  |  | 1.6 µg/mL (≈ 3.47 µM) | 
13 | (E)-N-{4-[3-chloro-4-(1H-imidazol-1-yl)anilino]-3-cyano-7-methoxy-6-quinolinyl}-azol-1-yl)anilino]-4-(dimethylamino)-2-)anilino-2-butenamide [Example 43] |  |  |  |  | 1.45 µg/mL | 0.57 µg/mL | 0.32 µg/mL |  | CELL IC50 A431 ([8]; EGFR +++, Her-2 +, 2 days, SRB): 0.51 µg/mL; CELL IC50 3T3/NEU ([4]; EGFR −, Her-2 +++, 2 days, SRB): 1.46 µg/mL
14 | COc1cc2c(Nc3ccc4cn[nH]c4c3)c(C#N)cnc2cc1OCCCN1CCOCC1 [Example 34, 4-(1H-Indazol-6-ylamino)-6-methoxy-7-(3-morpholin-4-yl-propoxy)-quinoline-3-carbonitrile] | > 5 µg/mL | > 10900 nM | > 5 µg/mL | > 5 µg/mL |  |  |  | > 5 µg/mL | 
15 | COc1cc2ncc(C#N)c(Nc3ccc(N(Cc4cccnc4)C(C)=O)c(Cl)c3)c2cc1NC(=O)/C=C/CN(C)C [Example 47] |  |  |  |  | 1.64 µg/mL | 1.16 µg/mL | >5 µg/mL |  | CELL IC50 A431 ([8]; EGFR +++, Her-2 +, 2 days, SRB): 0.646 µg/mL; CELL IC50 3T3/NEU ([4]; EGFR −, Her-2 +++, 2 days, SRB): >5 µg/mL
16 | CCOc1cc2ncc(C#N)c(Nc3ccc(Nc4nnc(C(F)(F)F)s4)c(Cl)c3)c2cc1NC(=O)/C=C/CN(C)C [Example 53, (E)-N-[4-(3-chloro-4-{[5-(trifluoromethyl)-1,3,4-thiadiazol-2-yl]amino}anilino)-3-cyano-7-ethoxy-6-quinolinyl]-4-(dimethylamino)-2-butenamide] | 1.05 µg/mL (≈ 1.7 µM) | 1440 nM | 0.95 µg/mL (≈ 1.54 µM) | 0.179 µg/mL (≈ 0.29 µM) |  |  |  | 0.728 µg/mL (≈ 1.18 µM) | 
17 | COc1cc2ncc(C#N)c(Nc3ccc(Sc4nccs4)c(Cl)c3)c2cc1[N+](=O)[O-] [Example 38, 4-{[3-chloro-4-(1,3-thiazol-2-ylsulfanyl)phenyl]amino}-7-methoxy-6-nitro-3-quinolinecarbonitrile] | 0.15 µg/mL (≈ 0.319 µM) | 558 nM | 0.35 µg/mL (≈ 0.745 µM) | 0.124 µg/mL (≈ 0.264 µM) |  |  |  | 0.148 µg/mL (≈ 0.315 µM) | 
18 | CCOc1cc2ncc(C#N)c(Nc3ccc(Sc4nc(-c5ccccc5)cs4)c(Cl)c3)c2cc1NC(=O)/C=C/CN(C)C [Example 72, (E)-N-(4-{3-chloro-4-[(4-phenyl-1,3-thiazol-2-yl)sulfanyl]anilino}-3-cyano-7-ethoxy-6-quinolinyl)-4-(dimethylamino)-2-butenamide] | 0.54 µg/mL (≈ 0.842 µM) | 31.2 nM | 0.18 µg/mL (≈ 0.281 µM) | 0.006 µg/mL (≈ 0.00936 µM) |  |  |  | 0.24 µg/mL (≈ 0.374 µM) | 
19 | CCOc1cc2ncc(C#N)c(Nc3ccc(Oc4ccncc4)c(Cl)c3)c2cc1[N+](=O)[O-] [Example 54, 4-[3-chloro-4-(4-pyridinyloxy)anilino]-7-ethoxy-6-nitro-3-quinolinecarbonitrile] | > 5 µg/mL | > 10800 nM | 2.54 µg/mL (≈ 5.5 µM) | > 5 µg/mL |  |  |  | > 5 µg/mL | 
20 | COCCN(C)C/C=C/C(=O)Nc1cc2c(Nc3ccc(Sc4nccs4)c(Cl)c3)c(C#N)cnc2cc1OC [Example 71, (E)-N-{4-[3-chloro-4-(1,3-thiazol-2-ylsulfanyl)anilino]-3-cyano-7-methoxy-6-quinolinyl}-4-[(2-methoxyethyl)(methyl)amino]-2-butenamide] | 0.4 µg/mL (≈ 0.672 µM) | 3.36 nM | 0.09 µg/mL (≈ 0.151 µM) | 0.002 µg/mL (≈ 0.00336 µM) |  |  |  | 0.03 µg/mL (≈ 0.0504 µM) | 
